The results in this text go back to patent US11759455B2, “Substituted 1H-imidazo[4,5-b]pyridin-2(3H)-ones and their use as GLUN2B receptor modulators” (JANSSEN PHARMACEUTICA NV, priority 2016, dated 2023).

This assay has as its target T1, human GluN1/GluN2B NMDA receptors (Homo sapiens, UniProt Q13224).
T1 construct: expressed in transfected cells
In words: Cell-based calcium flux (FLIPR) assay on cloned human NR1/NR2B ion channels expressed in mammalian cells (standard and HTS buffer variants). (Calcium assays in cells follow changes in intracellular calcium, usually with a dye or a luminescent sensor.)

Setting [1] is: standard assay buffer (0.5 mM MgCl2 dye loading; 137 mM NaCl, 4 mM KCl assay buffer), human GluN1/GluN2B cells, read-out: NR2B IC50 (μM) standard assay.
[2] abbreviates: standard assay buffer (0.5 mM MgCl2 in dye loading buffer; 137 mM NaCl, 4 mM KCl in assay buffer), human GluN1/GluN2B, read-out: NR2B IC50 (μM) standard assay.
The mark [3] stands for this setting: HTS assay buffer (1.5 mM MgCl2 in dye loading buffer; 150 mM NaCl, 3 mM KCl in assay buffer), human GluN1/GluN2B, read-out: NR2B IC50 (μM) HTS assay.

Where two headings read alike, the source gives them in different places. Bounds are passed on as bounds.
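Note: stable Tet-On inducible cell line, Ca2+ influx triggered by glutamate at about EC40 plus 10 µM glycine, fluorescent dye read-out over 5 min, normalized to control wells.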

T1 sequence (Q13224 27-1484, other chains not shown): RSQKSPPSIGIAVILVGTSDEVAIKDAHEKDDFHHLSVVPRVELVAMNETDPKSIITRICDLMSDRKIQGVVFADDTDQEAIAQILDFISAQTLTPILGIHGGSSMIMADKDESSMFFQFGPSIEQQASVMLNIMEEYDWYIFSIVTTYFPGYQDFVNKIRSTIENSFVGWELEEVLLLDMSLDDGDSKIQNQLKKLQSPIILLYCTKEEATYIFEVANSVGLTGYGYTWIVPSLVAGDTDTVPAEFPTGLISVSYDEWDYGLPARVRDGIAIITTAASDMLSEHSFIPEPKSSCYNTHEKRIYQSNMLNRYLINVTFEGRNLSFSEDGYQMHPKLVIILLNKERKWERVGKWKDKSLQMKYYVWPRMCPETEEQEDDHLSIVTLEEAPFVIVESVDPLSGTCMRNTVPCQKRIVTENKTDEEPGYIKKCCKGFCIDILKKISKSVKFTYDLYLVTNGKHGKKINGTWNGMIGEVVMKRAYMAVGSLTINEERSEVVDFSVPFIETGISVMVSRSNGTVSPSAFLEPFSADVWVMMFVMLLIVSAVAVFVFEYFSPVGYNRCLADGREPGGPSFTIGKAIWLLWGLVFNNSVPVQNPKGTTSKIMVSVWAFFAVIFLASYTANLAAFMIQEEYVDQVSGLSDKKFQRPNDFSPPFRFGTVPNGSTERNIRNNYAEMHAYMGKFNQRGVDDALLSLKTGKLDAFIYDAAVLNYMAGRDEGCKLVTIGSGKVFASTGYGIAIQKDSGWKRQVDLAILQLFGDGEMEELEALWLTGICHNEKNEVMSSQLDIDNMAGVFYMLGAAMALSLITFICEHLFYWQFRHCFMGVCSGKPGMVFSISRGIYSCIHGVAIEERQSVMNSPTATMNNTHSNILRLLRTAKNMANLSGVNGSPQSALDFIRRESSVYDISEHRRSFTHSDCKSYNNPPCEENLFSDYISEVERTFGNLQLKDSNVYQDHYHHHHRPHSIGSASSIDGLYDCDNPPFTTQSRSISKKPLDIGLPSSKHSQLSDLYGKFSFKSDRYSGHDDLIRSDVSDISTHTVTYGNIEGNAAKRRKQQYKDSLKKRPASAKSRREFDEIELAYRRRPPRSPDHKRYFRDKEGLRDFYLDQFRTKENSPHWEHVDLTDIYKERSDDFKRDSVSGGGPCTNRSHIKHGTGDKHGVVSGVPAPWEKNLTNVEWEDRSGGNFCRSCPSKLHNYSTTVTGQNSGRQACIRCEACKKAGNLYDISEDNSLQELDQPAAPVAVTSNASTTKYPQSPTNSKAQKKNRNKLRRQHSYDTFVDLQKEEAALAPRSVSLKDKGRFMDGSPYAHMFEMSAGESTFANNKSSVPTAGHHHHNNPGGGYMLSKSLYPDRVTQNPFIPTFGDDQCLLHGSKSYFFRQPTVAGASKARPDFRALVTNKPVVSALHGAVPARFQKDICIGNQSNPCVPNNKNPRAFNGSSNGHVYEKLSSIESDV

Broadly, the IC50 is the concentration at which inhibition is half-maximal. Consider `CCc1ccc(-c2cnc3c(c2)n(CC(=O)N2CCC2)c(=O)n3C)s1` [Example 87, 1-[2-(Azetidin-1-yl)-2-oxo-ethyl]-6-(5-ethyl-2-thienyl)-3-methyl-imidazo[4,5-b]pyridin-2-one], for which the IC50 under setting [1] came to 0.021 µM.

For `Cc1cc(F)ccc1-c1cnc2[nH]c(=O)n(CCN3CC(F)C3)c2c1` [Example 187, 1-[2-(3-Fluoroazetidin-1-yl)ethyl]-6-(4-fluoro-2-methyl-phenyl)-3H-imidazo[4,5-b]pyridin-2-one], the half-maximal inhibitory concentration (IC50) under setting [1] was 1.19 µM.

As for `Cc1c(F)ccc(-c2cnc3c(c2)n(Cc2cncnc2)c(=O)n3C)c1F` [Example 69], the 50% inhibitory concentration (IC50) under setting [1] worked out at 0.033 µM.

With `Cc1c(F)ccc(-c2cnc3[nH]c(=O)n(CCN4CCC4)c3c2)c1C` [Example 171, 1-[2-(Azetidin-1-yl)ethyl]-6-(4-fluoro-2,3-dimethyl-phenyl)-3H-imidazo[4,5-b]pyridin-2-one], the IC50 under setting [1] stood at 0.21 µM.

Take `CCOc1ccccc1-c1cnc2[nH]c(=O)n(Cc3ccc(F)cc3)c2c1` [Example 606, 6-(2-Ethoxyphenyl)-1-[(4-fluorophenyl)methyl]-3H-imidazo[4,5-b]pyridin-2-one]: the half-inhibitory concentration (IC50) under setting [2] came to 2.18 µM.

As for `O=c1[nH]c2ncc(-c3cccc(F)c3)cc2n1Cc1cccnc1` [Example 290, 6-(3-fluorophenyl)-1-(3-pyridylmethyl)-3H-imidazo[4,5-b]pyridin-2-one], the concentration for half-maximal inhibition (IC50) under setting [1] is 0.065 µM.

In the case of `Cn1c(=O)n(CC(=O)N2CC(F)(F)C2)c2cc(-c3ccc(Cl)c(OC(F)F)c3)cnc21` [Example 594, 6-[4-Chloro-3-(difluoromethoxy)phenyl]-1-[2-(3,3-difluoroazetidin-1-yl)-2-oxo-ethyl]-3-methyl-imidazo[4,5-b]pyridin-2-one], the half-inhibitory concentration (IC50) under setting [2] was 0.082 µM.

Consider `COc1ccc(-c2cnc3[nH]c(=O)n(Cc4cccc(F)c4)c3c2)c(OC)c1` [Example 496, 6-(2,4-Dimethoxyphenyl)-1-[(3-fluorophenyl)methyl]-3H-imidazo[4,5-b]pyridin-2-one], for which, under setting [3], the concentration for half-maximal inhibition (IC50) stood at 2.79 µM.

With `Cc1cc(-c2cnc3c(c2)n(Cc2cccnn2)c(=O)n3C)ccc1F` [Example 50, 6-(4-Fluoro-3-methyl-phenyl)-3-methyl-1-(pyridazin-3-ylmethyl)imidazo[4,5-b]pyridin-2-one], the concentration for half-maximal inhibition (IC50) under setting [1] came to 0.009 µM.

On to `Cc1c(F)ccc(-c2cnc3[nH]c(=O)n(CCN4CC(F)C4)c3c2)c1C` [Example 184, 1-[2-(3-Fluoroazetidin-1-yl)ethyl]-6-(4-fluoro-2,3-dimethyl-phenyl)-3H-imidazo[4,5-b]pyridin-2-one], for which, under setting [1], the half-maximal inhibitory concentration (IC50) came to 2.57 µM.

For `Cc1c(F)ccc(-c2cnc3c(c2)n(Cc2ncccn2)c(=O)n3C)c1F` [Example 65, 6-(2,4-Difluoro-3-methyl-phenyl)-3-methyl-1-(pyrimidin-2-ylmethyl)imidazo[4,5-b]pyridin-2-one], the 50% inhibitory concentration (IC50) under setting [1] came out at 0.81 µM.

Turning to `Cc1ccccc1-c1cnc2[nH]c(=O)n(CCN3CCC3)c2c1` [Example 152, 1-[2-(Azetidin-1-yl)ethyl]-6-(o-tolyl)-3H-imidazo[4,5-b]pyridin-2-one], under setting [1], the IC50 is 0.127 µM.

`CNC(=O)Cn1c(=O)[nH]c2ncc(-c3cccc(C(F)(F)F)c3)cc21` [Example 435, N-Methyl-2-[2-oxo-6-[3-(trifluoromethyl)phenyl]-3H-imidazo[4,5-b]pyridin-1-yl]acetamide]: under setting [2], the 50% inhibitory concentration (IC50) was determined as 0.264 µM.

As to `O=c1[nH]c2ncc(-c3cccc(C(F)(F)F)c3)cc2n1Cc1ccc(C(F)(F)F)nc1` [Example 257, 6-[3-(Trifluoromethyl)phenyl]-1-[[6-(trifluoromethyl)-3-pyridyl]methyl]-3H-imidazo[4,5-b]pyridin-2-one], the IC50 under setting [1] was found to be 1.46 µM.

Regarding `O=c1[nH]c2ncc(-c3ccc(F)cc3)cc2n1Cc1cccnc1` [Example 295, 6-(4-Fluorophenyl)-1-(3-pyridylmethyl)-3H-imidazo[4,5-b]pyridin-2-one], the IC50 under setting [1] came out at 0.098 µM.

As for `Cc1cccnc1Cn1c(=O)[nH]c2ncc(-c3cccc(F)c3)cc21` [Example 285, 6-(3-Fluorophenyl)-1-[(3-methyl-2-pyridyl)methyl]-3H-imidazo[4,5-b]pyridin-2-one], the half-inhibitory concentration (IC50) under setting [1] was greater than 10 µM.

With `COc1cccc(Cn2c(=O)[nH]c3ncc(-c4cccnc4)cc32)c1` [Example 506, 1-[(3-Methoxyphenyl)methyl]-6-(3-pyridyl)-3H-imidazo[4,5-b]pyridin-2-one], the IC50 under setting [3] is greater than 29 µM.

Regarding `Cc1csc(-c2cnc3c(c2)n(CC(=O)N(C)C)c(=O)n3C)c1` [Example 80, N,N-Dimethyl-2-[3-methyl-6-(4-methyl-2-thienyl)-2-oxo-imidazo[4,5-b]pyridin-1-yl]acetamide], the 50% inhibitory concentration (IC50) under setting [1] was 0.03 µM.

With `COCCNC(=O)Cn1c(=O)[nH]c2ncc(-c3ccc(OC)cc3)cc21` [Example 444, N-(2-Methoxyethyl)-2-[6-(4-methoxyphenyl)-2-oxo-3H-imidazo[4,5-b]pyridin-1-yl]acetamide], under setting [3], the half-maximal inhibitory concentration (IC50) stood at 0.747 µM.

On to `Cc1ccncc1Cn1c(=O)[nH]c2ncc(-c3ccc(F)c(C(F)(F)F)c3)cc21` [Example 314, 6-[4-Fluoro-3-(trifluoromethyl)phenyl]-1-[(4-methyl-3-pyridyl)methyl]-3H-imidazo[4,5-b]pyridin-2-one], for which the 50% inhibitory concentration (IC50) under setting [1] worked out at 0.049 µM.

On to `O=C(Cn1c(=O)[nH]c2ncc(-c3cccc(C(F)(F)F)c3)cc21)c1cccs1` [Example 214, 1-[2-Oxo-2-(2-thienyl)ethyl]-6-[3-(trifluoromethyl)phenyl]-3H-imidazo[4,5-b]pyridin-2-one], for which the half-inhibitory concentration (IC50) under setting [1] is greater than 10 µM.

Take `N#Cc1ccccc1Cn1c(=O)[nH]c2ncc(-c3cccc(C(F)(F)F)c3)cc21` [Example 213, 2-[[2-Oxo-6-[3-(trifluoromethyl)phenyl]-3H-imidazo[4,5-b]pyridin-1-yl]methyl]benzonitrile]: the IC50 under setting [1] is 0.375 µM.

Take `O=c1[nH]c2ncc(-c3cc(F)cc(F)c3)cc2n1CCNCCO` [Example 173, 6-(3,5-Difluorophenyl)-1-[2-(2-hydroxyethylamino)ethyl]-3H-imidazo[4,5-b]pyridin-2-one]: under setting [1], the half-inhibitory concentration (IC50) was found to be 4.26 µM.

Take `Cc1cncc(Cn2c(=O)[nH]c3ncc(-c4ccc(F)c(C)c4F)cc32)c1` [Example 270, 6-(2,4-Difluoro-3-methyl-phenyl)-1-[(5-methyl-3-pyridyl)methyl]-3H-imidazo[4,5-b]pyridin-2-one]: the IC50 under setting [1] amounted to 0.115 µM.

With `COc1ccc(Cn2c(=O)[nH]c3ncc(-c4cccc(C(F)(F)F)c4)cc32)cn1` [Example 210, 1-[(6-Methoxy-3-pyridyl)methyl]-6-[3-(trifluoromethyl)phenyl]-3H-imidazo[4,5-b]pyridin-2-one], the IC50 under setting [1] was determined as 1.62 µM.

With `Cc1cccc(-c2cnc3[nH]c(=O)n(Cc4cccnc4)c3c2)c1` [Example 297, 6-(m-Tolyl)-1-(3-pyridylmethyl)-3H-imidazo[4,5-b]pyridin-2-one], the 50% inhibitory concentration (IC50) under setting [1] was found to be 0.027 µM.

As for `Cn1c(=O)n(CC(=O)N2CCCC2)c2cc(-c3ccc(C(F)(F)F)s3)cnc21` [Example 328, 3-Methyl-1-(2-oxo-2-pyrrolidin-1-yl-ethyl)-6-[5-(trifluoromethyl)-2-thienyl]imidazo[4,5-b]pyridin-2-one], the IC50 under setting [2] is 0.079 µM.

On to `Cn1cnc(Cn2c(=O)[nH]c3ncc(-c4ccc(F)cc4)cc32)n1` [Example 141, 6-(4-Fluorophenyl)-1-[(1-methyl-1,2,4-triazol-3-yl)methyl]-3H-imidazo[4,5-b]pyridin-2-one], for which the half-inhibitory concentration (IC50) under setting [1] turned out to be 1.18 µM.

For `CC(C)c1ccc(Cn2c(=O)[nH]c3ncc(-c4ccc(Cl)cc4)cc32)cc1` [Example 511, 6-(4-Chlorophenyl)-1-[(4-isopropylphenyl)methyl]-3H-imidazo[4,5-b]pyridin-2-one], under setting [3], the concentration for half-maximal inhibition (IC50) is greater than 29 µM.

As to `O=c1[nH]c2ncc(-c3ccc(F)c(Cl)c3)cc2n1Cc1ccc(F)cc1` [Example 502, 6-(3-Chloro-4-fluoro-phenyl)-1-[(4-fluorophenyl)methyl]-3H-imidazo[4,5-b]pyridin-2-one], the IC50 under setting [3] was 4.86 µM.

As to `O=C(Cn1c(=O)n(CF)c2ncc(-c3ccc(C(F)(F)F)s3)cc21)N1CCCC1` [Example 598, 3-(Fluoromethyl)-1-(2-oxo-2-pyrrolidin-1-yl-ethyl)-6-[5-(trifluoromethyl)-2-thienyl]imidazo[4,5-b]pyridin-2-one], the IC50 under setting [2] is 0.173 µM.

Turning to `Cn1c(=O)n(CC(=O)N2CC(F)C2)c2cc(-c3ccc(C(F)(F)F)s3)cnc21` [Example 327, 1-[2-(3-Fluoroazetidin-1-yl)-2-oxo-ethyl]-3-methyl-6-[5-(trifluoromethyl)-2-thienyl]imidazo[4,5-b]pyridin-2-one], the IC50 under setting [2] stood at 0.071 µM.

`Cn1ccc(Cn2c(=O)[nH]c3ncc(-c4ccc(F)c(Cl)c4)cc32)n1` [Example 130, 6-(3-Chloro-4-fluoro-phenyl)-1-[(1-methylpyrazol-3-yl)methyl]-3H-imidazo[4,5-b]pyridin-2-one]: the IC50 under setting [1] was 4.73 µM.

Turning to `COc1ccc(-c2cnc3[nH]c(=O)n(Cc4cc(C)on4)c3c2)c(OC)c1` [Example 518, 6-(2,4-Dimethoxyphenyl)-1-[(5-methylisoxazol-3-yl)methyl]-3H-imidazo[4,5-b]pyridin-2-one], the concentration for half-maximal inhibition (IC50) under setting [2] amounted to 0.808 µM.

`Cn1c(=O)n(CC(=O)N2CCC2)c2cc(-c3ccc(C(F)(F)C(F)(F)F)s3)cnc21` [Example 111, 1-[2-(Azetidin-1-yl)-2-oxo-ethyl]-3-methyl-6-[5-(1,1,2,2,2-pentafluoroethyl)-2-thienyl]imidazo[4,5-b]pyridin-2-one]: under setting [1], the IC50 was 0.037 µM.

Consider `Cc1cc(-c2cnc3c(c2)n(CC(=O)N2CC(F)C2)c(=O)n3C)ccc1F` [Example 401, 1-[2-(3-Fluoroazetidin-1-yl)-2-oxo-ethyl]-6-(4-fluoro-3-methyl-phenyl)-3-methyl-imidazo[4,5-b]pyridin-2-one], for which the IC50 under setting [2] is 0.016 µM.

In the case of `Cc1ccncc1Cn1c(=O)[nH]c2ncc(-c3cccc(C(F)(F)F)c3)cc21` [Example 313, 1-[(4-Methyl-3-pyridyl)methyl]-6-[3-b]pyridin-2-one], the half-maximal inhibitory concentration (IC50) under setting [1] turned out to be 0.018 µM.
